Data as given in patent US20110263454A1, “Methods of Identifying Functional Characteristics of Promoters, Transcription Modifying Proteins and Transcription Modulating Agents” (Salk Institute for Biological Studies, priority 2008, published 2011).

Legend:
mUCP3 promoter = assay: NHR-promoter luciferase screen, mUCP3 promoter; assay type: cell-based, mouse; details: for Normalized Luc. act., normalized to control / Luc. act., normalized to lacZ: mUCP3 promoter reporter; for Normalized Luc. act., normalized to control: HR without or with its ligand, relative to control; for Luc. act., normalized to lacZ: hormone receptor (HR) without or with its ligand; for mUCP3 promoter reporter activity: transcription factor +/- ligand, control = 1.00
Method: (§1) The use, feasibility, and reproducibility of the functional NHR-promoter screen in a 48-well format have been tested validated. Briefly, there were co-expressed 50 ng of each NHR/NHR homodimer or NHR/RXR heterodimer with 100 ng promoter/luciferase construct and 50 ng of LacZ (as a control for transfection efficiency) in CV-1 cells using Fugene HD (Roche) as a transfection reagent (alternatively or additionally, a CMV-YFP construct can be used as a transfection control). Each of the nuclear hormone receptors that were used in these experiments was cloned into a pcDNA3.1 vector and comprised a C-terminally linked V5H6 tag. Twenty-four hours after transfection, appropriate ligands were added, where applicable, (see Table 5 for various ligands and concentrations and after 48 hrs, samples were assayed for luciferase and LacZ activity. To measure for luciferase activity 15 ul of sample was added to 30 ul of luciferase buffer (20 mM tricine, 1.07 mM MgCarbonate, 2.67 mM MgSulfate, 0.1 mM Naz-EDTA, 5 mM DTT, 5 mM ATP, 0.15 mg/ml CoA, 0.5 mM Luciferin), mixed briefly, and run in a Perkin Elmer Victor 5 luminometer. Thus, the functional NHR-promoter screen was used to observe the transcriptional activity of 29 promoters from various physiological pathways including inflammation, lipid and sugar metabolism, cholesterol transport, xenobiotic metabolism, and circadian rhythm.
(§2) The promoters that facilitate transcription of the indicated gene products that were tested using the protocols described herein are listed in the first row of the table. The nuclear hormone receptors and, where applicable, ligands that were assayed for their transcriptional effects on the promoters are listed in the first column of the table. The data represent the luciferase activity of each sample normalized to both the lacZ activity of that sample and to a control, e.g., no NHR or ligand, as customary in the art. As described previously, these normalizations allow the transcriptional activity of each reporter cell to be compared to other samples.
(§3) Tables 7-40 show the transcriptional effects of the hormone receptors, and, where applicable, ligands (orphan receptors are screened without ligand), on each individual promoter. […] The control data of each table are shown in their last rows.

hPPARg1 promoter = assay: NHR-promoter luciferase screen, hPPARg1 promoter; assay type: cell-based, human; details: for Luc. act., normalized to lacZ / Normalized Luc. act., normalized to control: PPARG1 promoter, hormone receptor with or without its ligand; for Normalized Luc. act., normalized to control: relative to control; for Results of assays of transcription factor (+/- ligand) with hPPARg1: Table 6d, luciferase activity relative to control (control = 1.00)
Method: as §1, §2, §3

mCAR promoter = assay: NHR-promoter luciferase screen, mCAR promoter; assay type: cell-based, mouse; details: for luciferase activity normalized to lacZ activity and to a control, mCAR: mCAR promoter-luciferase, CV-1 cells, NHR +/- ligand, control = 1.00; for Luc. act., normalized to lacZ / Normalized Luc. act., normalized to control: mCAR promoter, HR/ligand component
Method: as §1, §2, §3

mPer1 promoter = assay: NHR-promoter luciferase screen, mPer1 promoter; assay type: cell-based, mouse; details: for Luc. act., normalized to lacZ / Normalized Luc. act., normalized to control: Per1 promoter reporter, co-transfected HR, with or without its ligand; for Normalized Luc. act., normalized to control: relative to control; for luciferase activity normalized to lacZ activity and to a control, mPer1: mPer1 promoter-luciferase, CV-1 cells, NHR +/- ligand, control = 1.00
Method: as §1, §2, §3

Bmal1 promoter = assay: NHR-promoter luciferase screen, Bmal1 promoter; assay type: cell-based, mouse; details: for Luc. act., normalized to lacZ / Normalized Luc. act., normalized to control: Bmal1 promoter, HR component without or with ligand; for mBmal1 promoter reporter activity: transcription factor +/- ligand, control = 1.00
Method: as §1, §2, §3

Substance | Normalized Luc. act., normalized to control (mUCP3 promoter) | Luc. act., normalized to lacZ (mUCP3 promoter) | mUCP3 promoter reporter activity (mUCP3 promoter) | Luc. act., normalized to lacZ (hPPARg1 promoter) | Normalized Luc. act., normalized to control (hPPARg1 promoter) | Results of assays of transcription factor (+/- ligand) with hPPARg1 (hPPARg1 promoter) | luciferase activity normalized to lacZ activity and to a control, mCAR (mCAR promoter) | Luc. act., normalized to lacZ (mCAR promoter) | Normalized Luc. act., normalized to control (mCAR promoter) | Luc. act., normalized to lacZ (mPer1 promoter) | Normalized Luc. act., normalized to control (mPer1 promoter) | luciferase activity normalized to lacZ activity and to a control, mPer1 (mPer1 promoter) | Luc. act., normalized to lacZ (Bmal1 promoter) | Normalized Luc. act., normalized to control (Bmal1 promoter) | mBmal1 promoter reporter activity (Bmal1 promoter)
AR: Androsterone Receptor (NR3C4), cDNA driver | 2.5 | 1.69 | 2.50 | 90.6 | 1.3 | 1.31 | 0.81 | 30.88 | 0.8 | 123.5 | 0.9 | 0.86 | 13.5 | 0.9 | 0.86
ERR1: Estrogen Related Receptor α (NR3B1, ERRa), cDNA driver | 1.5 | 1.0 | 1.47 | 59.1 | 0.9 | 0.86 | 1.07 | 40.9 | 1.1 | 197.1 | 1.4 | 1.37 | 13.6 | 0.9 | 0.87
GR: Glucocorticoid Receptor (NR3C1), cDNA driver | 0.9 | 0.59 | 0.88 | 37.2 | 0.5 | 0.54 | 0.23 | 8.74 | 0.2 | 384.1 | 2.7 | 2.67 | 13.2 | 0.8 | 0.84
LXRa: Liver X Receptor α (NR1H3), cDNA driver | 1.6 | 1.1 | 1.58 | 80.8 | 1.2 | 1.17 | 0.78 | 29.5 | 0.8 | 100.6 | 0.7 | 0.70 | 19.7 | 1.3 | 1.26
NR4a1: NR4a1 (NR4A1; NUR77), nuclear hormone receptor cDNA driver | 2.1 | 1.40 | 2.07 | 129.6 | 1.9 | 1.88 | 0.94 | 35.66 | 0.9 | 503.5 | 3.5 | 3.50 | 15.7 | 1.0 | 1.00
PNR: Photoreceptor-specific Nuclear Receptor (NR2E3), cDNA driver | 0.8 | 0.5 | 0.79 | 45.9 | 0.7 | 0.67 | 0.55 | 21.0 | 0.6 | 93.4 | 0.6 | 0.65 | 7.6 | 0.5 | 0.49
PPARa: Peroxisome proliferator activated receptor α (NR1C1), cDNA driver | 2.1 | 1.5 | 2.15 | 57.6 | 0.8 | 0.84 | 0.88 | 33.6 | 0.9 | 180.7 | 1.3 | 1.25 | 8.1 | 0.5 | 0.52
PPARg: Peroxisome proliferator activated receptor γ (NR1C3), cDNA driver | 1.8 | 1.2 | 1.83 | 75.7 | 1.1 | 1.10 | 1.25 | 47.7 | 1.3 | 154.5 | 1.1 | 1.07 | 13.8 | 0.9 | 0.88
RXRa: Retinoic X Receptor α (NR2B1), cDNA driver | 1.3 | 0.9 | 1.27 | 45.6 | 0.7 | 0.66 | 0.97 | 36.9 | 1.0 | 75.8 | 0.5 | 0.53 | 11.8 | 0.8 | 0.75
SF-1: Steroidogenic Factor 1 (NR5A1, SF1), cDNA driver | 5.5 | 3.7 | 5.46 | 124.1 | 1.8 | 1.80 | 2.43 | 92.6 | 2.4 | 536.5 | 3.7 | 3.73 | 11.4 | 0.7 | 0.73
TLX: Tailless (homolog of drosophila) (NR2E1), cDNA driver | 1.1 | 0.8 | 1.11 | 107.9 | 1.6 | 1.57 | 0.39 | 15.0 | 0.4 | 217.6 | 1.5 | 1.51 | 12.2 | 0.8 | 0.78
VDR: Vitamin D Receptor (NR1I1), cDNA driver | 1.5 | 1.0 | 1.49 | 38.1 | 0.6 | 0.55 | 0.69 | 26.5 | 0.7 | 97.1 | 0.7 | 0.67 | 22.0 | 1.4 | 1.40
